Assay [1] has as its system male C57BL/6 mice. Kind of assay: Streptozotocin-induced pancreatic lesion model. It is filed as in vivo, mouse. The arrangement: The number of piconized cells per islet (pixel): unit not given here. The method, then:
The study was performed on male C57BL/6 mice of 4 week old. Pancreatic damage was induced by intraperitoneal injection of streptozotocin at a dose of 40 mg/kg in 0.25 ml of phosphate buffer every day for 5 days [Szkudelski T. The Mechanism of Alloxan and Streptozotocin Action in B Cells of the Rat Pancreas//Physiological Research.—2001.—Vol. 50.—P. 536-546].
Treamid at a dose of 1 mg/kg was administered daily intragastrically once daily on Days 7-20 of the study.
On Days 0, 6, 10, 13, 16, 19, 21, 24, and 28 of the study, blood glucose was determined. The blood glucose level was determined after four-hour deprivation of feed with a glucometer (SencoCard glucometer, “77 Electronics Kft”, Hungary).
On Day 28 of the study, the animals were euthanized in a CO2 chamber, the pancreas was subjected to a morphological examination, and the pancreatic homogenate was studied on an enzyme-linked immunosorbent assay for common collagen and type I collagen.
For morphological study, a part of the pancreas adjacent to the spleen was fixed in 10% formalin and poured into paraffin. Deparaffined sections of the gland were stained with hematoxylin and eosin. On the sections, the area of 10 serial islets of Langerhans was determined by graphic computer analysis, and the total number of cells and the number of pyknotized cells were counted therein. Then, the number of cells per unit islet area and the percentage of the pyknotized cells were calculated.
Inflammatory cells (neutrophils, lymphocytes, macrophages) in the pancreatic tissue and their composition were studied by staining of the histological sections with hematoxylin-eosin and azur-eosin.
The level of mouse type I collagen in a […] was determined by enzyme-linked immunosorbent assay (Cusabio Biotech CO., LTD, China). The lung tissue homogenate was prepared according to the protocol of the manufacturer, Cusabio Biotech CO., LTD (China).
The level of the total collagen in the lung homogenate was determined by using a SIRCOL Collagen Assay kit (Biocolor Ltd, UK) for determining collagen by binding it to a dye and treating with an acid and a solution of pepsin, according to the manufacturer's instructions. The lung tissue homogenate was prepared according to the protocol of manufacturer's test system.

Assay [2] relates to male rats. The class given is in vivo, rat. The following applies: Day 45 and Day 65. The method, then: The latter was simulated by a single injection of cytostatic drug Paclitaxel (Mitotax, Dr. Reddy's, India) to male rats (3 months of age). The choice of the drug was due to the fact that it is one of the medications that damage the precursors of spermatogenesis—stem cells.
Paclitaxel was administered to the animals of the control and test groups once intravenously at the maximum tolerated dose of 7.6 mg/kg. Treamid was administered to the animals of the experimental groups intragastrically at a dose of 5 mg/kg in the form of a suspension in 2% starch mucus for 15 days a month after the administration of Paclitaxel. The control animals received an equivalent volume of the solvent (2% starch mucus), instead of the test compound. […]
On Day 1 (in 24 hours), as well as on Day 45 and Day 65 after the administration of Paclitaxel, the animals were euthanized, and the preparations of their testes were made. Further, the content of progenitor cells of spermatogenesis in the testes was determined by an in vitro cloning method. […] Then, the nonadherent fraction of cells was collected, and the number of cells (cells/ml) was counted in the Goriaev chamber. […] After the incubation, the number of colony-forming units, spermatogenic (CFU-Sp)—clusters of more than 30 cells of round shape and of various diameters—was counted. […]

The results in this text go back to patent US10076511B2, “Bisamide derivative of dicarboxylic acid as an agent for stimulating tissue regeneration and recovery of diminished tissue function” (TREAMID GmbH, priority 2015, dated 2018).

For the compound `O=C(CCCC(=O)NCCc1ncc[nH]1)NCCc1ncc[nH]1` [Treamid], the “The area of the islet tissue (pixel)” value in assay [1] (Day 28, Treamid 1 mg/kg) is listed as 635770 ± 56163• pixel. The “The number of piconized cells per islet (pixel)” value in assay [1] (Day 28, Treamid 1 mg/kg) came to 1.75 ± 0.14. Moreover, in assay [1] (Day 28, Treamid 1 mg/kg), the “The total number of cells in the islet of Langerhans (×10^4)” value is recorded as 109.9 ± 12.6• ×10^4. The “blood glucose level (mM/L)” value is 5.1 ± 0.1 mM/L in assay [1] (Initial level); 10.8 ± 0.4 mM/L in assay [1] (day 6 after the last administration of streptozotocin (before Treamid, given Days 7-20)); 11.2 ± 0.2 mM/L in assay [1] (day 10, Treamid 1 mg/kg intragastrically Days 7-20); 11.6 ± 0.3*• mM/L in assay [1] (day 13, Treamid 1 mg/kg intragastrically Days 7-20); 10.4 ± 1.4 mM/L in assay [1] (day 16, Treamid 1 mg/kg intragastrically Days 7-20); 12.0 ± 0.1 mM/L in assay [1] (day 19, Treamid 1 mg/kg intragastrically Days 7-20). The “blood glucose level (mM/L)” value in assay [1] (day 21, Treamid 1 mg/kg intragastrically Days 7-20) is 12.1 ± 0.4*• mM/L; in assay [1] (day 24, Treamid 1 mg/kg intragastrically Days 7-20) it was 12.2 ± 1.0*• mM/L; in assay [1] (day 28, Treamid 1 mg/kg intragastrically Days 7-20), 12.6 ± 1.1 mM/L. For the same compound, the “increase in the number of colony-forming cells compared with the cytostatic control” value in assay [2] was 44-48%.
